# How the values were obtained:
# [1] = tested on: uterus of estrogen-primed immature female rabbits (endometrial transformation); assay: Clauberg-McPhail test by oral administration (gavage), endometrial transformation of the rabbit uterus; type: in vivo; conditions: for ED50 (dose for mean McPhail grade equal to 2): mean ± s.e.m., total dose/rabbit/5 days; for Relative activity: relative to nomegestrol acetate = 100%
# Description: (§1) The progestational activity of the compounds according to the present invention can be assessed mainly in two specific experimental models the affinity for the progesterone receptor (PR) in vitro, and the endometrial tranformation of the rabbit uterus in vivo. Human PRs are readily available in high amounts from the T47-D cell line in culture (M. B. Mockus et al., Endocrinology, 1982, 110, 1564-1571). Relative binding affinities (RBA) for the human T47-D cell PR are determined as previously described (J. Botella et al., J. Steroid Biochem. Molec. Biol., 1994, 50, 41-47) using [^3 H]-ORG 2058 as a labelled specific ligand (G. Fleischmann and M. Beato, Biochim. Biophys. Acta, 1978, 540, 500-517) and nomegestrol acetate as a non-radioactive reference progestin. Competitive incubations were performed against 2 nM of [^3 H]-ORG 2058 for 3 hours at 4° C. with […] of non-labelled steroid, chosen between 4 and 256 nM following a 1/2^n dilution scheme. Displacement curves were fitted for each experiment, and the concentration inhibiting 50% of the specific binding of [^3 H]-ORG 2058 was calculated for each curve (IC50).
# One specific pharmacological test has been standardized in vivo for the detection and quantitation of pseudogestagenic activity since the mid-30's: it is based on the property of the uterus of estrogen-primed immature female rabbits to respond to very slight amounts of progestin by a typical endometrial transformation into a densely packed and interlaced epithelial network called "dentelle". The original test schedule, which includes 6 days of estrogen priming (total subcutaneous dose of 30 μg/rabbit of oestradiol benzoate) followed by 5 days of progestational treatment, was designed as early as 1930 by C. Clauberg, Zentr. Gynakol. 1930, 54, 2757-2770. The semi-quantitative scale used to grade the intensity of the microscopical appearance of the dentelle was set up by M. K. McPhail, J. Physiol (London), 1934, 83, 145-156. This overall Clauberg-McPhail procedure has been extensively used to screen steroids for putative progestational activity in vivo and is still part of the basic hormonal profile of any new progestin such as norgestimate (A Phillips et al., Contraception, 1987, 36, 181-192), or desogestrel (J. Van der Vies and J. De Visser, Arzneim. Forsch/Drug Res., 1983, 33, 231-236). The progestational potency is inversely related to the dose needed to induce a half-maximal stimulation of the dentelle, i.e. to record a mean McPhail grade equal to 2. This ED50 is deduced from the dose-responsecurve and expressed in total dose/rabbit/5 days. All compounds were tested only following oral administration by gavage, in suspension in a carboxy-methylcellulose solution.
# [2] = tested on: human T47-D cell progesterone receptor; assay: Relative binding affinity to human T47-D cell progesterone receptor ([3H]-ORG 2058 displacement); conditions: for IC50: mean ± s.e.m., 2 nM [3H]-ORG 2058, 3 hours at 4° C., T47-D cell PR, read-out: ED50 (concentration inhibiting 50% of the specific binding of [3H]-ORG 2058); for RBA (relative binding affinity): relative to nomegestrol acetate = 100%
# Description: as §1
# [3] = tested on: ventral prostate and seminal vesicle of immature castrated male rats; assay: Residual androgenic activity in the immature castrated male rat model; type: in vivo; conditions: for Ventral Prostate weight / Seminal Vesicle weight: 10 daily administrations; for effect on the growth of male accessory sex organs (residual androgenic activity): in words, gavage (PO), Tables 3 and 4
# Description: The residual androgenic potential is an important feature to be evaluated for any new progestin, because it is highly predictive of androgenic side-effects in women. One pharmacological model of androgenic activity has been standardized to screen steroids or related compounds in immature castrated male rats, using the hypertrophy of the vental prostate and of the seminal vesicle as the endpoint, following 10 daily administrations (R. I. Dorfman, in Methods in Hormone Research, volume 2, London, Academic Press, 1962: 275-313; A. G. Hilgar and D. J. Hummel, Androgenic and Myogenic Endocrine Bioassay Data, U.S. Department of Health, Education and Welfare, Washington D.C., 1964).
# [4] = tested on: ventral prostate and seminal vesicle of immature castrated male rats; conditions: well-known from the literature (Tausk and de Visser); cited from earlier work
# [5] = tested on: uterus of estrogen-primed immature female rabbits (endometrial transformation); conditions: in words, known from the literature; cited from earlier work
# [6] = Table 3, PO, 20 mg/animal/day, mean ± s.e.m. of 8 animals, castrated controls 12.0 ± 0.9, medroxyprogesterone acetate p <0.001, Example 1 ns
# [7] = Table 3, PO, 20 mg/animal/day, mean ± s.e.m. of 8 animals, castrated controls 12.3 ± 0.7, medroxyprogesterone acetate p <0.01, Example 1 ns
# [8] = Table 4, PO, 20 mg/animal/day, mean ± s.e.m. of 7 or 8 animals, castrated controls 10.4 ± 0.6, both ns
# [9] = Table 4, PO, 20 mg/animal/day, mean ± s.e.m. of 7 or 8 animals, castrated controls 11.8 ± 0.6, cyproterone acetate p <0.05, Example 4 ns
SMILES,ED50 (dose for mean McPhail grade equal to 2) [1],Relative activity [1],IC50 [2],RBA (relative binding affinity) [2],effect on the growth of male accessory sex organs (residual androgenic activity) [3],other results
"CC(=O)O[C@]1(C(C)=O)CC[C@H]2[C@@H]3CC(C)(C)C4=CC(=O)CC[C@@H]4[C@H]3CC[C@@]21C [Example 1, 17α-acetoxy-6,6-dimethyl-3,20-dioxo-19-nor-pregna-4-ene]",152 ± 28 μg/rabbit 5 days,112%,27.8 ± 2 nM,32%,totally inactive,"Ventral Prostate weight [3, 6]: 13.0 ± 0.3 mg; Seminal Vesicle weight [3, 7]: 10.4 ± 0.5 mg"
CC(=O)O[C@]1(C(C)=O)CC[C@H]2[C@@H]3C[C@H](C)C4=CC(=O)CC[C@]4(C)[C@H]3CC[C@@]21C [Medroxyprogesterone acetate],–,–,–,–,caused both organs to more or less double in weight,"androgenic properties [4]: weak androgenic properties; Ventral Prostate weight [3, 6]: 29.1 ± 1.4 mg; Seminal Vesicle weight [3, 7]: 19.9 ± 1.8 mg"
"CC(=O)O[C@]1(C(C)=O)CC[C@H]2[C@@H]3C[C@H](C)C4=CC(=O)[C@@H]5C[C@@H]5[C@@H]4[C@H]3CC[C@@]21C [Example 4, 17α-acetoxy-1α,2α-methylene-6α-methyl-3,20-dioxo-19-nor-pregna-4-ene]",66 ± 11 μg/rabbit 5 days,258%,22.8 ± 1.7 nM,39%,totally inactive,"Seminal Vesicle weight [3, 8]: 11.2 ± 0.5 mg; Ventral Prostate weight [3, 9]: 12.1 ± 0.4 mg"
"CC(=O)O[C@]1(C(C)=O)CC[C@H]2[C@@H]3C=C(C)C4=CC(=O)CC[C@@H]4[C@H]3CC[C@@]21C [Nomegestrol acetate, reference compound]",170 ± 41 μg/rabbit 5 days,100%,8.9 ± 2 nM,100%,–,progestational activity [5]: potent orally active
CC(=O)O[C@]1(C(C)=O)CC[C@H]2[C@@H]3C=C(Cl)C4=CC(=O)[C@@H]5C[C@@H]5[C@]4(C)[C@H]3CC[C@@]21C [Cyproterone acetate],–,–,–,–,"very weak and limited to the ventral prostate, at the border of statistical significance","progestational activity [5]: potent progestational activity; Seminal Vesicle weight [3, 8]: 11.3 ± 0.6 mg; Ventral Prostate weight [3, 9]: 15.3 ± 1.3 mg"
C[C@]12CC[C@H]3[C@@H](CCC4=CC(=O)CC[C@@]43C)[C@@H]1CC[C@@H]2O [Testosterone],–,–,–,–,–,"Ventral Prostate weight ([3]; Table 3, SC, 0.05 mg/animal/day, mean ± s.e.m. of 8 animals, castrated controls 12.0 ± 0.9, *** p <0.001): 90.4 ± 4.4 mg; Seminal Vesicle weight ([3]; Table 3, SC, 0.05 mg/animal/day, mean ± s.e.m. of 8 animals, castrated controls 12.3 ± 0.7, *** p <0.001): 90.3 ± 6.7 mg; Seminal Vesicle weight ([3]; Table 4, SC, 0.05 mg/animal/day, mean ± s.e.m. of 7 or 8 animals, castrated controls 10.4 ± 0.6, *** p <0.001): 79.0 ± 5.3 mg; Ventral Prostate weight ([3]; Table 4, SC, 0.05 mg/animal/day, mean ± s.e.m. of 7 or 8 animals, castrated controls 11.8 ± 0.6, *** p <0.001): 80.9 ± 3.4 mg"
"CC(=O)O[C@]1(C(C)=O)CC[C@H]2[C@@H]3C[C@H](C)C4=CC(=O)[C@H]5C[C@H]5[C@@H]4[C@H]3CC[C@@]21C [Example 5, 17α-acetoxy-1β,2β-methylene-6α-methyl-3,20-dioxo-19-nor-pregna-4-ene]",> 750 ± 6.0 μg/rabbit 5 days,> 17%,17.7 ± 2.4 nM,50%,–,–

# Source: patent US6180803A, “19-nor-pregnene derivatives and pharmaceuticals containing such derivatives” (priority 1996, dated 2001)
